The source of these data is PMC7759271 (Cannabis and Cannabinoid Research, 2020).

Assay [1] concerns the target T1, hTRPA1 (Homo sapiens, UniProt O75762).
T1 construct: gene TRPA1
In words: intracellular calcium fluorescence assay (Calcium […] dye, FlexStation […]). Format: cell-based. Background: Calcium flux is commonly read through the fluorescence of an indicator in the cells.

The target of assay [2] is T2, hTRPV1 (Homo sapiens, UniProt Q8NER1).
T2 construct: gene TRPV1
The description is as above. Format: cell-based.

T1 sequence (O75762 whole entry): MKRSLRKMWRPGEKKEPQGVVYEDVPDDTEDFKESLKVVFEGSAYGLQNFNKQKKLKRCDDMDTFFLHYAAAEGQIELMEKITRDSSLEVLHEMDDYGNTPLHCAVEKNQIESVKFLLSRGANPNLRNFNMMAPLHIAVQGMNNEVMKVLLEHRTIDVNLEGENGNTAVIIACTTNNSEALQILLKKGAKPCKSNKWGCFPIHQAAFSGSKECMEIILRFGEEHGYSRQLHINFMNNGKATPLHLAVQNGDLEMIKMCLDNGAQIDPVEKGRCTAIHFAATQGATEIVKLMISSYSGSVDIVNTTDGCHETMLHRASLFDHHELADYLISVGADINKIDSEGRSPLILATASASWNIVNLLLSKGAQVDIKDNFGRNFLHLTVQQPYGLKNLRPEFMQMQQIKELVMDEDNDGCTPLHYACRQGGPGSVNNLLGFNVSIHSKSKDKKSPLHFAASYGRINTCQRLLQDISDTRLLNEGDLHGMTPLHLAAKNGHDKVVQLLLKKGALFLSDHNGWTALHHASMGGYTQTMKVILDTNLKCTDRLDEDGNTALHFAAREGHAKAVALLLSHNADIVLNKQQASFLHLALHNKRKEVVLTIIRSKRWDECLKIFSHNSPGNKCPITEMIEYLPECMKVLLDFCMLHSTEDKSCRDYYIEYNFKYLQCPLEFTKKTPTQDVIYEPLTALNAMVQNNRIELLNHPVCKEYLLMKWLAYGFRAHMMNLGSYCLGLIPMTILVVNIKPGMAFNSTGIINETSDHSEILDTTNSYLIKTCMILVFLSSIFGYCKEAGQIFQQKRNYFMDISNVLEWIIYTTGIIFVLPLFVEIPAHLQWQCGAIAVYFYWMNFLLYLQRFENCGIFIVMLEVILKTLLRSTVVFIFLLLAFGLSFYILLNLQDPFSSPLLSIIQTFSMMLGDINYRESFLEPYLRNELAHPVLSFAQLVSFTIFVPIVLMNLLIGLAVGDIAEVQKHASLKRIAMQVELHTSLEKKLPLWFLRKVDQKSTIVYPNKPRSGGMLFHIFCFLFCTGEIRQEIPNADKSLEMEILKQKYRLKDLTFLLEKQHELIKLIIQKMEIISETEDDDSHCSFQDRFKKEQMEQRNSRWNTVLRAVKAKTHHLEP
T2 sequence (Q8NER1 whole entry): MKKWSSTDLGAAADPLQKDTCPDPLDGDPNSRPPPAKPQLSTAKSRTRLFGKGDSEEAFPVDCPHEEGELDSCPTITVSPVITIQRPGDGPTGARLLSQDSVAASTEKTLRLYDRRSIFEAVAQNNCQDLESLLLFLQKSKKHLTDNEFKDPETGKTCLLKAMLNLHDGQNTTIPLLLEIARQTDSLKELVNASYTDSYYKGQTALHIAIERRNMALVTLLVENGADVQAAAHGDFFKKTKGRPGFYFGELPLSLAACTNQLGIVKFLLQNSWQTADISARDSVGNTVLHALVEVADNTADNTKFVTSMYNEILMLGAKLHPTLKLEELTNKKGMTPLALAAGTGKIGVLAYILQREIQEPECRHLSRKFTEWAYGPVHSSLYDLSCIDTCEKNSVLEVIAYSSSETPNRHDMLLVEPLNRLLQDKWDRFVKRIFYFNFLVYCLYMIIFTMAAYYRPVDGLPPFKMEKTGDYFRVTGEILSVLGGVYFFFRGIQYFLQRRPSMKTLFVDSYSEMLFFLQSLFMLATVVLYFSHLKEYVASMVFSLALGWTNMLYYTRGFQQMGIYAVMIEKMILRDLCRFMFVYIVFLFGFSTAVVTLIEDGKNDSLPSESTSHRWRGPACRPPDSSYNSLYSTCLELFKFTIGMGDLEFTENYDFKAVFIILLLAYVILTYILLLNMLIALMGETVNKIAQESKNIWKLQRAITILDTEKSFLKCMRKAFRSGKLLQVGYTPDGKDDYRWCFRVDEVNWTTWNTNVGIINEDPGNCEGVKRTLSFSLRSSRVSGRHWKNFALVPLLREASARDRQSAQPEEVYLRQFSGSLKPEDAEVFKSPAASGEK

With `CCCCC/C=C\C/C=C\C/C=C\C/C=C\CCCC(=O)OC(CO)CO` [2-arachidonoylglycerol], the 50% effective concentration (EC50) in assay [1] came out at 10 µM.

Regarding `CCCCC/C=C\C/C=C\C/C=C\C/C=C\CCCC(=O)NCCO` [anandamide], the EC50 in assay [2] turned out to be 4.3 µM.

For the molecule `O=CC=Cc1ccccc1` [cinnamaldehyde], the EC50 in assay [1] is 12 µM.

For the molecule `CCCCCc1cc(O)c2c(c1)OC(C)(C)[C@@H]1CCC(C)=C[C@@H]21` [Δ9-tetrahydrocannabinol], in assay [1], the EC50 is 9 µM.

The term EC50 denotes the concentration needed to bring the measured effect to its halfway point.
